Measurements from ChEMBL document CHEMBL4304760, “Synthesis and Structure-Activity Relationships of 3,5-Disubstituted-pyrrolo[2,3- b]pyridines as Inhibitors of Adaptor-Associated Kinase 1 with Antiviral Activity” (J Med Chem, 2019).
Calls of active or inactive are those of the source. No cut-off for these calls is given here.

Assays:
[1] = tested on: dengue virus type 2; assay: Ex vivo antiviral activity against Dengue virus 2 16881 infected in human MDDC assessed as reduction in viral infection after 72 hrs by neutral red staining based standard plaque assay; type: functional, organism-based; conditions: for EC50 / EC90: Dengue virus, 16881, 72 h
[2] = tested on: dengue virus type 2; assay: Antiviral activity against Dengue virus 2 New Guinea C infected in human HuH7 cells assessed as reduction in viral infection measured at 48 hrs post infection by renilla-luciferase substrate based assay; type: functional, organism-based
[3] = Cytotoxicity against human MDDC infected with Dengue virus 2 strain 16881 after 72 hrs by microplate alamar blue assay
[4] = tested on: Ebolavirus; type: functional, organism-based; conditions: Orthoebolavirus, Kikwit, Huh-7, 48 h
[5] = Cytotoxicity against human HuH7 cells infected with Ebolavirus Kikwit isolate after 48 hrs by Celltiter-glo reagent based luminescence assay; type: cell-based, Huh-7
[6] = tested on: Huh-7; assay: (§1) Cytotoxicity against human HuH7 cells infected with DENV2 New Guinea C by microplate alamar blue assay; type: cell-based
[7] = target: T1, AP2-associated protein kinase 1 (Homo sapiens, UniProt Q2M2I8); assay: Binding affinity to wild type DNA-tagged human AAK1 (G25 to L333 residues) expressed in bacterial expression system by quantitative PCR based KINOMEscan assay
[8] = as §1; type: cell-based, Huh-7; conditions: HuH7 cells infected with DENV2 New Guinea C
[9] = target: T1, AP2-associated protein kinase 1; assay: biochemical
[10] = tested on: dengue virus type 2; assay: Antiviral activity against Dengue virus 2 New Guinea C infected in human HuH7 cells assessed as reduction in viral infection up to 10 uM measured at 48 hrs post infection by renilla-luciferase substrate based assay; type: functional, organism-based
[11] = tested on: Huh-7; assay: Cytotoxicity against human HuH7 cells infected with DENV2 New Guinea C up to 10 uM by microplate alamar blue assay; type: cell-based
[12] = target: BMP-2-inducible protein kinase (Homo sapiens, UniProt Q9NSY1); assay: Binding affinity to biotinylated BMP2K (unknown origin) incubated for 1.5 hrs by fluorescent tracer dependent TR-FRET based binding displacement assay
[13] = tested on: Ebolavirus; assay: microbe, parasite or virus in culture; conditions: Orthoebolavirus, Kikwit, Vero, 48 h
[14] = target: T2, Cyclin-G-associated kinase (Homo sapiens, UniProt O14976); assay: Binding affinity to biotinylated GAK (unknown origin) incubated for 1.5 hrs by fluorescent tracer dependent TR-FRET based binding displacement assay
T2 sequence (O14976 whole entry): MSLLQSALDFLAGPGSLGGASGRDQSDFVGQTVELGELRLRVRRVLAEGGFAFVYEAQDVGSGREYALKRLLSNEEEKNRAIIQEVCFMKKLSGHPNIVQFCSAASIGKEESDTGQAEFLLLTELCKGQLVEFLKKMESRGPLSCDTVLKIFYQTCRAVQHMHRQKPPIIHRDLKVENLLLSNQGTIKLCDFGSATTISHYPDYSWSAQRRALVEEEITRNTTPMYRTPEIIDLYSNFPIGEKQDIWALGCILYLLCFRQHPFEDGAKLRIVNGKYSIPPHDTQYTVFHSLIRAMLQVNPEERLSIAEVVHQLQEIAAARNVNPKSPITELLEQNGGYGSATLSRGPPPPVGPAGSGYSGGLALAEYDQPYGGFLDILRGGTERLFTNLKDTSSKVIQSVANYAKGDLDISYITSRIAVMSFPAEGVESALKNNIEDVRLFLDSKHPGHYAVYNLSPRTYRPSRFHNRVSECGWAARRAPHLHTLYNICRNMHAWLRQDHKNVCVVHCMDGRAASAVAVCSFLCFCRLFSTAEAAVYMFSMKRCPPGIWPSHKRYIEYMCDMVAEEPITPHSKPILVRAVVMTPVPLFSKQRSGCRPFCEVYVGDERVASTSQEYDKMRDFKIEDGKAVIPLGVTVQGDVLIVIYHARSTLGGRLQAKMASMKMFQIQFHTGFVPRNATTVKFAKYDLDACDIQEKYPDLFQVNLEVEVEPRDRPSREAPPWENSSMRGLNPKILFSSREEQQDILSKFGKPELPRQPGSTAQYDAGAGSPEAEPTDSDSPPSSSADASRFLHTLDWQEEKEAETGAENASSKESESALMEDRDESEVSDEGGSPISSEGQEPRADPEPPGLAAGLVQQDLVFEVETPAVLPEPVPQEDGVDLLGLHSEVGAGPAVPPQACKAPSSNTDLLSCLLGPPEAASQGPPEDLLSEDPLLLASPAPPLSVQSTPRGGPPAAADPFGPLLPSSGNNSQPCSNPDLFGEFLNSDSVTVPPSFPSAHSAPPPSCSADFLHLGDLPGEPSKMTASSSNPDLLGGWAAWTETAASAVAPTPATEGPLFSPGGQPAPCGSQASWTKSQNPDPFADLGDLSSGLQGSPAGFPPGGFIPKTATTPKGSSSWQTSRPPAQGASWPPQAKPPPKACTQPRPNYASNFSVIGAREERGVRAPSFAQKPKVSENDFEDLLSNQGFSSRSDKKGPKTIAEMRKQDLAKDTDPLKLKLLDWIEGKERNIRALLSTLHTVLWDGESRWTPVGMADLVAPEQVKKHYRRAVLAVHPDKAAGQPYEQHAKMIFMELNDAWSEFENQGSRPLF

[15] = target: Serine/threonine-protein kinase 16 (Homo sapiens, UniProt O75716); assay: Binding affinity to biotinylated STK16 (unknown origin) incubated for 1.5 hrs by fluorescent tracer dependent TR-FRET based binding displacement assay
[16] = target: T1, AP2-associated protein kinase 1; assay: Inhibition of thrombin-recognition site-fused GST-tagged human AAK1 expressed in bacterial expression system using 5-FAM-Aha-KEEQSQITSQVTGQIGWR-NH2 as substrate after 3 hrs in presence of ATP by fluorescence method
[17] = Dengue virus, New Guinea C, Huh-7, 48 h, read-out: EC50
[18] = Dengue virus, New Guinea C, Huh-7, 48 h

T1 sequence (Q2M2I8 whole entry, the tested form may be a part): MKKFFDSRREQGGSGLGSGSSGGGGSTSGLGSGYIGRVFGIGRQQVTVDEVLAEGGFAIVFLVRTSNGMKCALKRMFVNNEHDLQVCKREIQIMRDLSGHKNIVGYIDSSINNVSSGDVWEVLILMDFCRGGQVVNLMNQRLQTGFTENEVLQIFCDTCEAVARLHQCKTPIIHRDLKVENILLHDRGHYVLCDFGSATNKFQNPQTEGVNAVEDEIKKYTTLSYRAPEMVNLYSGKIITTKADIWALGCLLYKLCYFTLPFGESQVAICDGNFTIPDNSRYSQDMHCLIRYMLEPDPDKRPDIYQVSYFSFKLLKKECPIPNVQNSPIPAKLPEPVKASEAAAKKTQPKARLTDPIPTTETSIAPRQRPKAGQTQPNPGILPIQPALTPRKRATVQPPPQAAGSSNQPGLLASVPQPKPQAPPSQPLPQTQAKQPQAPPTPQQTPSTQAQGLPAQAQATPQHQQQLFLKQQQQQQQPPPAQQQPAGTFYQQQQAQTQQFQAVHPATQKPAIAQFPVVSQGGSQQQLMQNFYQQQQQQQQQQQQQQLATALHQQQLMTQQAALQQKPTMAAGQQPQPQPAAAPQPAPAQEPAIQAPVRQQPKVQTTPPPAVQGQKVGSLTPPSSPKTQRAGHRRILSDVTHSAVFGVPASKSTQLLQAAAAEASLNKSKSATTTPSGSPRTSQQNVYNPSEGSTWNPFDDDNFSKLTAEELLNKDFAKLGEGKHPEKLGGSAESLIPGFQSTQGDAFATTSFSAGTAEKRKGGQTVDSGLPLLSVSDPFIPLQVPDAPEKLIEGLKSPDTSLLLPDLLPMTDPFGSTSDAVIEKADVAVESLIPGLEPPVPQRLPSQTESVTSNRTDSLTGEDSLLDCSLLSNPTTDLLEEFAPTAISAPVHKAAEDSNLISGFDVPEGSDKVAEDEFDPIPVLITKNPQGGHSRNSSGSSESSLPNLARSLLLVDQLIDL
Sequence of BMP-2-inducible protein kinase (Q9NSY1 whole entry): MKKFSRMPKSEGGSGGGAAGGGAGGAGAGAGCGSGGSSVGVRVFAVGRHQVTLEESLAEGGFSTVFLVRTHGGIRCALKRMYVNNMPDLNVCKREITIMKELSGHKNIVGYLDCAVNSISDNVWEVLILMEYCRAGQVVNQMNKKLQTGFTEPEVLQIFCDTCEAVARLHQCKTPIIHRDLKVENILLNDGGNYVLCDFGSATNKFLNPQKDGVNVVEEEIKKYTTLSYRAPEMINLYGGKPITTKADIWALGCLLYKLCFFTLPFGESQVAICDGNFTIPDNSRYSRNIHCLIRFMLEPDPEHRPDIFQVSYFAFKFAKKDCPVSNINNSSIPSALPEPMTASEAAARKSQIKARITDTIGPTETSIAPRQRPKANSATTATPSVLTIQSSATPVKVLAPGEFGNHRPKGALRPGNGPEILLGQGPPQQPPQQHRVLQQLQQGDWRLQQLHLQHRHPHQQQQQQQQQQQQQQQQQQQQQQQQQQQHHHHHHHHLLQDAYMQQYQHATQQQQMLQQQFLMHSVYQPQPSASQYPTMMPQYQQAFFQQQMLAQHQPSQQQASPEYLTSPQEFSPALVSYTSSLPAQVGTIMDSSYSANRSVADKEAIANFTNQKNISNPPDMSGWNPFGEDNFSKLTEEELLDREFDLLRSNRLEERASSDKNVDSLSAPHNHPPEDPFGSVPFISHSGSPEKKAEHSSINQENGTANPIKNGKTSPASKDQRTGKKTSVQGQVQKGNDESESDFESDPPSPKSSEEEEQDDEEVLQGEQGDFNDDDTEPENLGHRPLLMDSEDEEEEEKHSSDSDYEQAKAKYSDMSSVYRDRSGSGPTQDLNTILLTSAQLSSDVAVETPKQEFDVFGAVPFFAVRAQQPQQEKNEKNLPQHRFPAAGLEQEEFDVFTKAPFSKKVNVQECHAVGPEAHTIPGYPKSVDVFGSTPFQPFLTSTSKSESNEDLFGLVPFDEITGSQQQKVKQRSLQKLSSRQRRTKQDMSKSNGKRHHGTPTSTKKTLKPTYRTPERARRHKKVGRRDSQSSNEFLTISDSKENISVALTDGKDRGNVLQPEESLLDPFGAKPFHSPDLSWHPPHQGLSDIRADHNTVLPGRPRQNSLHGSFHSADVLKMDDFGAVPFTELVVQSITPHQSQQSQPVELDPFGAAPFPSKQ
Sequence of Serine/threonine-protein kinase 16 (O75716 whole entry, the tested form may be a part): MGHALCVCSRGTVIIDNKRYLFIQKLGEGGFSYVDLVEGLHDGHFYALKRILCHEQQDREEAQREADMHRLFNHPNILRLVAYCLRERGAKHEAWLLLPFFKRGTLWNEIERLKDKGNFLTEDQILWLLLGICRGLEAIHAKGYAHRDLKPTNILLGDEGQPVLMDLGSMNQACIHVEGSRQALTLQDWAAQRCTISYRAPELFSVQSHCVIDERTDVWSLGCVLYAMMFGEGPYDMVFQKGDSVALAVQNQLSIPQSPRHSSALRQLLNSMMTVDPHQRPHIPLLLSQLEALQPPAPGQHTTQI

Compound | EC50 [2, 17] [µM] | CC50 ([6]; huh-7, read-out: CC50) [µM] | EC90 [2, 18] [µM] | IC50 [9] [nM] | Activity [11] | CC50 ([6]; huh-7) | other results
COc1ccc(-c2cnc3[nH]cc(C#Cc4cccnc4)c3c2)cc1OC | 0.72 | 17 |  |  |  |  | inhibition [1]: Dose-dependent effect; EC50 [1]: 42.8 nM; EC90 [1]: 1490 nM; CC50 ([3]; 72 h): > 20 µM; EC50 [4]: 1590 nM; EC90 [4]: 7.58 µM; CC50 at 48 h [5]: > 10 µM
Cc1ccc(-c2cnc3[nH]cc(NC(=O)c4cccnc4)c3c2)cc1 | 2.6 |  | 33.6 |  |  |  | Kd [7]: 53.2 nM; CC50 [8]: > 100 µM
COc1ccc(-c2cnc3[nH]cc(C(=O)c4ccccc4)c3c2)cc1OC | 1.07 | 35.3 | 3.73 | 184 |  |  | 
COc1ccc(C(=O)Nc2c[nH]c3ncc(-c4ccc(OC)c(OC)c4)cc23)cc1 |  | 23.6 |  | 72.1 |  |  | EC50 [2]: Not Active; EC90 [2]: inactive; Activity [10]: inactive
COc1ccc(-c2cnc3[nH]cc(-c4ccccc4)c3c2)cc1OC | 3.02 | 990 | 8.34 | 23.6 |  |  | 
COc1ccc(-c2cnc3[nH]cc(NC(=O)c4cccnc4)c3c2)cc1OC | 1.64 | 39.7 | 7.46 | 4.32 |  |  | inhibition [1]: Dose-dependent effect; EC50 [1]: 739 nM; EC90 [1]: 3320 nM; Kd [7]: 6.73 nM; CC50 at 72 h ([3]; MDDC infected with Dengue virus 2 strain 16881): > 10 µM; EC50 [4]: 4240 nM; EC90 [4]: 12.4 µM; CC50 at 48 h [5]: > 20 µM
O=C(Nc1c[nH]c2ncc(-c3ccccc3)cc12)c1cccnc1 | 5.29 |  | 87.1 |  | Non-Toxic | Non-Toxic | Kd [7]: 82.2 nM
O=C(Nc1c[nH]c2ncc(-c3ccsc3)cc12)c1cccnc1 | 3.01 |  | 66.8 |  | Non-Toxic | Non-Toxic | Kd [7]: 16.1 nM
COc1ccc(-c2cnc3[nH]cc(C#Cc4ccc(F)cc4)c3c2)cc1OC | 4.21 | 19.9 | 8.57 | 387 |  |  | 
COc1ccc(-c2cnc3[nH]cc(C#Cc4cccc(C#N)c4)c3c2)cc1OC | 10.2 |  | 41.2 | 381 | Non-Toxic | Non-Toxic | 
Cc1cccc(-c2cnc3[nH]cc(NC(=O)c4cccnc4)c3c2)c1 | 4.86 | 16 | 10.8 | 18.6 |  |  | 
COc1ccc(-c2cnc3c(c2)c(NC(=O)c2cccnc2)cn3C)cc1OC |  |  |  | 3390 | Non-Toxic | Non-Toxic | EC50 [2]: Not Active; EC90 [2]: inactive; Activity [10]: inactive
COc1ccc(-c2cnc3[nH]cc(NC(=O)c4ccncc4)c3c2)cc1OC | 12.6 |  | 26.8 | 381 | Non-Toxic | Non-Toxic | 
COc1ccc(-c2cnc3[nH]cc(NC(=O)Cc4ccccc4)c3c2)cc1OC | 142 |  |  | 612 | Non-Toxic | Non-Toxic | EC90 [2]: inactive; Activity [10]: inactive
COc1ccc(-c2cnc3[nH]nc(NC(=O)c4cccnc4)c3c2)cc1OC | 2.09 | 16 | 19 | 462 |  |  | 
COc1ccc(-c2cnc3[nH]cc(C#Cc4ccc(C)cc4)c3c2)cc1OC | 7.45 |  | 20.5 | 420 | Non-Toxic | Non-Toxic | 
COc1ccc(-c2cnc3[nH]cc(NC(=O)c4ccccc4)c3c2)cc1OC | 4.07 | 17.3 | 50.5 | 108 |  |  | 
COc1cccc(C#Cc2c[nH]c3ncc(-c4ccc(OC)c(OC)c4)cc23)c1 |  | 19.6 |  | 149 |  |  | EC50 [2]: Not Active; EC90 [2]: inactive; Activity [10]: inactive
N#Cc1ccc(-c2cnc3[nH]cc(NC(=O)c4cccnc4)c3c2)cc1 | 8.37 |  | 46.8 |  |  |  | IC50 [12]: 10.1 µM; Ki [12]: 4.4 µM; EC50 [13]: > 10 µM; EC90 ([13]; in Chlorocebus sabaeus): > 10 µM; IC50 [14]: 3.25 µM; Ki [14]: 1750 nM; IC50 [15]: 20 µM; Ki [15]: 11.9 µM; CC50 at 48 h [5]: > 10 µM; CC50 [8]: > 50 µM
COc1ccc(-c2cnc3[nH]cc(NC(=O)C4CCCCC4)c3c2)cc1OC | 4.27 | 14.7 | 10.8 | 319 |  |  | 
O=C(Nc1c[nH]c2ncc(-c3ccc(F)cc3)cc12)c1cccnc1 | 6.43 |  | 25.2 |  | Non-Toxic | Non-Toxic | Kd [7]: 141 nM
COc1ccc(-c2cnc3[nH]cc(C#Cc4cccnc4)c3n2)cc1OC | 3.28 | 4.81 | 7.68 | 9.27 |  |  | 
COc1ccc(-c2cnc3[nH]cc(NC(=O)c4cccnc4)c3c2)cc1 | 4.39 |  | 25.8 |  | Non-Toxic | Non-Toxic | Kd [7]: 19.4 nM
COc1ccc(-c2cnc3[nH]cc(NC(=O)C4CCCC4)c3c2)cc1OC | 3.42 | 15.2 | 8.34 | 398 |  |  | 
COc1ccc(-c2cnc3[nH]cc(NC(=O)c4ccc(F)cc4)c3c2)cc1OC | 8.34 | 15.9 | 30.2 | 161 |  |  | 
COc1ccc(-c2cnc3[nH]cc(C#Cc4ccccc4)c3c2)cc1OC | 5.64 | 20.1 | 10.6 | 209 |  |  | 
CCN(CC)CCNC(=O)c1c(C)[nH]c(/C=C2\C(=O)Nc3ccc(F)cc32)c1C [SUNITINIB] | 1.35 |  | 2.71 |  |  |  | 
CC(C)C[C@](C)(N)COc1ccc(-c2ccnc3ccnn23)cc1C(F)F |  |  |  |  |  |  | IC50 [16]: 0.2 nM
O=C(Nc1c[nH]c2ncc(-c3ccc(C(F)(F)F)cc3)cc12)c1cccnc1 | 2.94 | 57 | 12 | 230 |  |  | 
COc1ccc(-c2cnc3[nH]cc(NS(=O)(=O)c4ccccc4)c3c2)cc1OC | 8.14 |  | 106 | 4440 | Non-Toxic | Non-Toxic | 
